# According to patent US8715697B2, “Genes associated with Leishmania parasite virulence” (priority 2001, dated 2014):
# Where a SMILES comes first, the peptide text is derived from it. Bridges are numbered along the chain shown (N, C = ends). Where no end group is shown, it is not given here. [ ]: non-standard residue; d: D form. The star is where a group is joined. Ileψ(thiazoline)Cys = CC[C@H](C)[C@H](N)C1=N[C@H](C(=O)*)CS1; dOrn = NCCC[C@@H](N)C(=O)O
# Legend:
# [1] = tested on: L. major parasites in the exponential growth phase; test: Inhibition of parasite (L. major) growth in a liquid medium by PDI inhibitors; format: cell-based, Leishmania major; details: for concentration that completely inhibited the growth of L. major in a liquid medium: counted every 24 h over 96 h, FIG. 9 and FIG. 11; for growth of Leishmania in a liquid medium (summary statement): no concentration stated, refers to Example 4
# Procedure: They are growth curves taken over 96 hours, for promastigotes of L major in the presence of 0, 1 mM, 1.5 mM or 2 mM of bacitracin.
# Different concentrations of inhibitors (0 to 5 mM) were used to follow the effect of PDI inhibitors on the multiplication of parasites in vitro. Parasites that had not been treated with inhibitors (T) were selected as a control for these experiments.
# With the aim of determining the effect of bacitracin (BAC), zinc bacitracin (BACZn), p-chloromercuribenzoic acid (PCMBA) and 5,5′-dithiobis(2-nitrobenzoic acid) (DTNB) on the in vitro growth of Leishmanias in a liquid medium, different concentrations of the inhibitors cited above, 0 mM, 0.05 mM, 0.1 mM, 0.2 mM, 0.5 mM, 1 mM, 1.5 mM, 2 mM, 2.5 mM and 5 mM were added to RPMI supplemented with 5% fetal calf serum and containing 2×10^6/ml of parasites in the exponential growth phase. The parasites were incubated at 26° C. and counted every 24 hours over 96 hours. The parasites were counted on Mallassez cells.
# The PDI inhibitors described in paragraph (1—) were tested with the aim of evaluating their capacities to inhibit the in vitro growth of parasites. To this end, different quantities of inhibitors were added to RPMI containing 2×10^6/ml of parasites in the exponential growth phase. The parasites were incubated at 26° C. and counted every 24 hours over 96 hours. The parasites were counted on Mallassez cells.
# [2] = tested on: L. major GLC94 isolate promastigotes; details: treatments used in man; general statement; cited from earlier work
# recombinant LmPDI = test: Inhibition of reactivation of scrambled RNase A by recombinant LmPDI (thio-disulfide oxido-reductase activity); format: biochemical, Leishmania major; details: for concentration at which LmPDI activity is completely inhibited: inhibitors tested at 0.01, 0.1, 0.5 and 2 mM; for inhibition of rLmPDI activity: FIG. 12
# Procedure: (§1) Scrambled RNase A (8 μM) was incubated in a buffer containing 4.5 mM cCMP, 1 mM glutathione GSH, 0.2 mM glutathione disulfide GSSH, 2 mM EDTA and 100 mM of Tris-HCl pH 8 in the presence of bovine serum albumin (BSA) (1.4 μM) as a negative control, bovine protein disulfide-isomerase (1.4 μM) as a positive control, or recombinant LmPDI (1.4 μM) for 30 minutes at 25° C. RNase A reactivation was determined by measuring the RNase A activity at 296 nm every 5 minutes, as described in the literature (Lyles and Gilbert, 1991).
# as §1, with “The scrambled RNase” for “Scrambled RNase”, “mM Tris-HCl,” for “mM of Tris-HCl”, “pH 8,” for “pH 8”, “5 minutes for 30 minutes” for “5 minutes,”
# The experimental conditions for the thio-disulfide oxido-reductase activity inhibition tests for recombinant LmPDI were strictly identical to those described in the paragraph “Reactivation of RNase A in the presence of recombinant LmPDI protein”, except that the reactions were carried out in the presence of 0.01 mM, 0.1 mM, 0.5 mM and 2 mM of the following PDI inhibitors: • bacitracin; • zinc bacitracin; • p-chloromercuribenzoic acid (pCMBA); • tocinoic acid. d) Inhibition of Parasite (L. Major) Growth in a Liquid Medium
# 1—Evaluation of the inhibition of recombinant LmPDI. The detailed technique for analyzing the PDI activity of LmPDI was described in Example 2 and in the Materials and Methods section above. The same technique can be used to evaluate the capacity of certain PDI inhibitors which are known or still to be identified (using a molecular model of LmPDI), by adding different concentrations of potential inhibitors to the reaction volume. The results are expressed as the percentage inhibition compared with the buffer alone. Only molecules with a significant and dose-dependent LmPDI inhibiting activity are retained.
# With the aim of determining whether the different PDI inhibitors described in the literature could inhibit the thio-disulfide oxido-reductase activity of LmPDI, the capacity of these inhibitors to block the enzymatic activity of LmPDI synthesized in E. coli then purified was studied in an in vitro test, at different-concentrations. The inhibitors were: • bacitracin; • zinc bacitracin; • p-chloromercuribenzoic acid (pCMBA); • tocinoic acid.
# Twenty milligrams of RNase A (Amersham.-Pharmacia) was denatured in a buffer composed of 0.15 M dithiothreitol, 6M guanidine HCl and 0.1 M Tris-HCl, pH 8.6 for 18 hours at ambient temperature. The scrambled RNase was then purified on a Sephadex G25 column equilibrated in HCl 0.01 M and quantified by spectrophotometry at 275 nm.
# In a glutathione-based reducing buffer, PDI catalyzes renaturing of scrambled RNase (Gilbert, 1998). Restoration of RNase activity was measured by spectrophotometry in the presence of cytidine 2′-3′-cyclic monophosphate (cCMP) as a substrate. 8 μM of scrambled RNase, alone or in the presence of 1.4 μM of bovine serum albumin (BSA) or 1.4 μM of rLmPDI was mixed in a buffer containing 4.5 mM of cCMP, 1 mM of reduced glutathione (GSH), 200 μM of oxidized glutathione (GSSG), 2 mM EDTA and 100 mM Tris-Cl, pH 8. The reaction was carried out at ambient temperature for 30 minutes. The hydrolysis of cCMP resulting from the renaturing of RNase was recorded by measuring the absorbance at 296 nm every 5 minutes for the half hour of the reaction.
# The activity of the recombinant LmPDI (rLmPDI) was measured in the presence of different concentrations of bacitracin (BAC 0.01 mM-2 mM) and zinc bacitracin (BACZn, 0.01 mM-2 mM).
# [3] = tested on: L. major GLC94 isolate promastigotes; test: Evolution of the disease in BALB/c mice infected with L. major GLC94 promastigotes, lesion size; format: in vivo
# Text: Sensitive BALB/c mice were infected with 10^6 promastigotes from the GLC94 isolate into the plantar pad and treated or not treated with bacitracin. The treatment was halted 9 weeks after infection (the arrow indicates treatment stoppage).
# The availability of zinc bacitracin, which already forms a weapon in the therapeutic arsenal, has allowed it to be tested on the evolution of infection in the BALB/c mouse with L. major. Mice were infected with promastigotes in the stationary growth phase (10^6 promastigotes per paw) of the GLC94 isolate into the plantar pad of the rear paw and treated with a pomade based on 5 mM or 25 mM of BACZn (prepared in Vaseline). Treatment with the pomade was started 48 hours after injecting the parasites, by dint of one application per day over 5 days of the week. Mice infected in the same manner and treated with Vaseline were used as the control. The lesion size was measured each week.
# GLC94 promastigotes = test: In vitro growth kinetics of L. major promastigotes in the presence of zinc bacitracin; format: cell-based, Leishmania major; details: FIG. 13
# Procedure: FIG. 13 illustrates the inhibition of the multiplication of GLC94 promastigotes by zinc bacitracin. The effect of zinc bacitracin (BACZn) on the multiplication of GLC94 promastogotes was determined in vitro. Different concentrations of inhibitor were tested to analyze their effect on the capacity of the parasites to multiply in vitro. The control (C) was constituted by parasites cultivated in a complete medium in the absence of inhibitors.
# To this end, promastigotes from the GLC94 isolate were cultured on a medium based on coagulated rabbit serum for two days. […] Promastigotes cultured in complete medium in the absence of inhibitors were used as the control. Monitoring was by counting the parasites at 48, 72 and 96 hours.
compound,measurement,setting,value
"O=C(O)c1cc(SSc2ccc([N+](=O)[O-])c(C(=O)O)c2)ccc1[N+](=O)[O-] [DTNB, 5,5′-dithiobis(2-nitrobenzoic acid)]",effect on the growth of Leishmanias in a liquid medium,"[1]; in the concentrations used (0 to 5 mM), FIG. 11",did not appear to have a very large effect
NC[C@@H]1O[C@H](O[C@H]2[C@@H](O)[C@H](O[C@@H]3[C@@H](O)[C@H](N)C[C@H](N)[C@H]3O[C@H]3O[C@H](CO)[C@@H](O)[C@H](O)[C@H]3N)O[C@@H]2CO)[C@H](N)[C@@H](O)[C@@H]1O [paramomycin],effect on the disease induced in the BALB/c mouse,[2],little effect
"tocinoic acid (CYIQNC; not fully specified (bridges); cysteine pairing not given here; UniProt P01178 20-25, looked up, fragment)",effect on the activity of LmPDI,"recombinant LmPDI; FIG. 10, at the concentrations employed (0.01 to 2 mM)",did not appear to have a very great effect
CNC[C@H](O)[C@@H](O)[C@H](O)[C@H](O)CO.[O]=[Sb](=[O])[OH] [glucantime],effect on the disease induced in the BALB/c mouse,[2],little effect
"O=C(O)c1cc[c]([Hg][Cl])cc1 [pCMBA, p-chloromercuribenzoic acid]",concentration at which LmPDI activity is completely inhibited,recombinant LmPDI; FIG. 10,0.01 mM
same,concentration that completely inhibited the growth of L. major in a liquid medium,[1],0.5 mM
zinc bacitracin,inhibition of rLmPDI activity,recombinant LmPDI; 0.1 mM,50%
same,inhibition of rLmPDI activity,recombinant LmPDI; 0.5 mM,70%
same,inhibition of rLmPDI activity,recombinant LmPDI; 2 mM,100%
same,concentration at which LmPDI activity is completely inhibited,recombinant LmPDI; FIG. 10,2 mM
same,concentration that completely inhibited the growth of L. major in a liquid medium,[1],2 mM
same,progress of the disease (lesion size),"[3]; pomade in Vaseline applied locally at the injection site, from 48 h after infection, preliminary, FIG. 14",attenuates the progress of the disease
same,growth of parasites,GLC94 promastigotes; 1 mM,no effect
same,growth of parasites,GLC94 promastigotes; 1.5 mM,partially inhibits
same,growth of parasites,GLC94 promastigotes; 2 mM,complete inhibition
same,growth of parasites,GLC94 promastigotes; 5 mM,complete inhibition
CC[C@H](C)[C@H](N)C1=N[C@H](C(=O)N[C@@H](CC(C)C)C(=O)N[C@H](CCC(=O)O)C(=O)N[C@H](C(=O)N[C@H]2CCCCNC(=O)[C@H](CC(N)=O)NC(=O)[C@@H](CC(=O)O)NC(=O)[C@H](Cc3cnc[nH]3)NC(=O)[C@@H](Cc3ccccc3)NC(=O)[C@H]([C@@H](C)CC)NC(=O)[C@@H](CCCN)NC2=O)[C@@H](C)CC)CS1 [bacitracin] ({Ileψ(thiazoline)Cys}-L[dE]IK[dOrn]I[dF]H[dD]N; lactam 4-C),inhibition of rLmPDI activity,recombinant LmPDI; 0.1 mM,50%
same,inhibition of rLmPDI activity,recombinant LmPDI; 0.5 mM,70%
same,inhibition of rLmPDI activity,recombinant LmPDI; 2 mM,100%
same,concentration at which LmPDI activity is completely inhibited,recombinant LmPDI; FIG. 10,2 mM
same,growth of Leishmania in a liquid medium (summary statement),[1],inhibits the growth
same,mice with lesion attenuation,[3]; pomade 5 mM,2 out of 3
same,mice with lesion attenuation,[3]; pomade 25 mM,2 out of 4
"O=S(=O)(O)c1cc[c]([Hg][Cl])cc1 [pCMBS, p-chloromercuribenzene sulfonic acid]",growth of Leishmania in a liquid medium (summary statement),[1],inhibits the growth
